Experimental data taken from the Deep4Chem optical property database.
One block for each compound: values may come before it.

Assay: solvent given as SMILES

Compound: CCCCCCCCN1c2ccc(C#Cc3cc(C(F)(F)F)cc(C(F)(F)F)c3)cc2Sc2cc(C=O)ccc21
absorption maximum (in C1CCOC1): 382 nm | absorption maximum (in CC#N): 386 nm | absorption maximum (in CCCCCC): 372 nm | absorption maximum (in CO): 366 nm | absorption maximum (in CS(C)=O): 396 nm | absorption maximum (in Cc1ccccc1): 381.01 nm | absorption maximum (in ClC(Cl)Cl): 386 nm

Compound: COc1ccc(C2=N/C(=C\c3ccc(C#N)cc3)C(=O)N2)cc1OC
absorption maximum (in C1COCCO1): 405 nm

Compound: Cc1cc(C)c(B(c2ccccc2N2c3ccccc3Oc3ccccc32)c2c(C)cc(C)cc2C)c(C)c1
absorption maximum (in Cc1ccccc1): 445 nm

Compound: CCn1c2ccc(-c3ccc(-c4cccs4)s3)cc2c2cc(-c3ccc(-c4cccs4)s3)ccc21
absorption maximum (in ClCCl): 380 nm

Compound: Cc1c(C(=O)c2ccc3c4cccc5cccc(c6cccc2c63)c54)c2ccc3cccc4c5cccc6ccc1c(c65)c2c34
absorption maximum (in ClCCl): 468 nm

Compound: CN(C)c1ccc(C#Cc2ccc3c(N(C)C)cc(-c4ccccc4)cc3c2)cc1
absorption maximum (in CC#N): 342.13 nm | absorption maximum (in CCO): 335.73 nm | absorption maximum (in ClCCl): 341 nm

Compound: F[B-]1(F)n2c(c(-c3ccccc3)c(-c3ccccc3)c2-c2ccccc2)C=C2C(c3ccccc3)=C(c3ccccc3)C(c3ccccc3)=[N+]21
absorption maximum (in C1CCOC1): 576 nm

Compound: CCCCc1ccc(-n2c3c4ccc(C(F)(F)F)cc4nnc3c3c2c2nnc4cc(C(F)(F)F)ccc4c2n3-c2ccc(CCCC)cc2)cc1
absorption maximum (in Cc1ccccc1): 322 nm

Compound: CCCCCCN(CCCCCC)c1ccc(C#Cc2ccc(-c3ccc(C#Cc4ccc(N(CCCCCC)CCCCCC)cc4)cc3)cc2)cc1
absorption maximum (in Cc1ccccc1): 374 nm

Compound: CN(C)c1ccc(-n2c(-c3ccncc3)nc3ccccc32)cc1
absorption maximum (in CC#N): 299 nm

Compound: CN(C)c1ccc(C2=[N+]3C(=Nc4c(-c5ccc(O)cc5)cc(-c5ccc(N(C)C)cc5)n4[B-]3(F)F)C(c3ccc(O)cc3)=C2)cc1
absorption maximum (in C1CCOC1): 775 nm | absorption maximum (in CS(C)=O): 794 nm | absorption maximum (in Cc1ccccc1): 778 nm

Compound: CCCCCCCCCCn1cc(C2=C(c3cn(CCCCCCCCCC)c4ccccc34)C(=O)N(C)C2=O)c2ccccc21
absorption maximum (in C1CCCCC1): 462 nm | absorption maximum (in C1CCOC1): 471 nm | absorption maximum (in CC#N): 470 nm | absorption maximum (in CC(C)OC(C)C): 470 nm | absorption maximum (in CCCCOCCCC): 469 nm | absorption maximum (in CCO): 480 nm | absorption maximum (in CCOC(C)=O): 472 nm | absorption maximum (in CN(C)C=O): 474 nm | absorption maximum (in Cc1ccccc1): 472 nm | absorption maximum (in ClCCl): 477 nm

Compound: O=P(c1ccccc1)(c1ccccc1)c1ccc(-n2c(-c3ccccc3P(=O)(c3ccccc3)c3ccccc3)nc3ccccc32)cc1
absorption maximum (in ClCCl): 300 nm

Compound: Cc1cc(-c2ccc(C(C)(C)C)cc2)c2nsnc2c1-c1ccc(C(C)(C)C)cc1
absorption maximum (in ClCCl): 376 nm

Compound: C[Si](C)(C)C#Cc1cc2ccc3cc(C#C[Si](C)(C)C)cc4ccc(c1)c2c34
absorption maximum (in Cc1ccccc1): 407 nm

Compound: c1ccc(-c2nc(-c3ccccc3)nc(-c3ccc(-n4c5ccccc5c5cc(-n6c7ccccc7c7ccccc76)ccc54)cc3)n2)cc1
absorption maximum (in Cc1ccccc1): 367 nm

Compound: O=C(c1ccc(-n2c3ccc(-c4ccccc4)cc3c3cc(-c4ccccc4)ccc32)cc1)c1ccc(-n2c3ccc(-c4ccccc4)cc3c3cc(-c4ccccc4)ccc32)cc1
absorption maximum (in Cc1ccccc1): 370 nm

Compound: CC1(C)c2ccccc2-c2cc3c4ccccc4n(-c4ccc(-c5nc(-c6ccccc6)nc(-c6ccccc6)n5)cc4)c3cc21
absorption maximum (in Cc1ccccc1): 362 nm

Compound: CCOC(=O)/C=C/C1=C(c2ccc(C)cc2)C2=Nc3c(-c4ccc(C)cc4)c(-c4ccc(OC)cc4)c(-c4ccc(C)cc4)n3[B-](F)(F)[N+]2=C1c1ccc(C)cc1
absorption maximum (in ClC(Cl)Cl): 673 nm

Compound: N#Cc1cc2nc3c(nc2cc1C#N)C1c2ccc(N(c4ccccc4)c4ccccc4)cc2C3c2ccc(N(c3ccccc3)c3ccccc3)cc21
absorption maximum (in C1CCCCC1): 428 nm | absorption maximum (in CC#N): 410 nm | absorption maximum (in Cc1ccccc1): 420 nm | absorption maximum (in ClCCl): 428 nm

Compound: CN(C)c1ccc(C#Cc2ccc3ccc4ccc(C#Cc5ccc(N(C)C)cc5)c5ccc2c3c45)cc1
absorption maximum (in C1COCCO1): 429 nm | absorption maximum (in CC(C)=O): 431 nm | absorption maximum (in CCCCCC): 421 nm | absorption maximum (in CCCCCCO): 429 nm | absorption maximum (in CCO): 426 nm | absorption maximum (in CCOC(C)=O): 428 nm | absorption maximum (in CO): 427 nm | absorption maximum (in Cc1ccccc1): 429 nm | absorption maximum (in ClCCl): 429 nm

Compound: c1ccc(-c2nc(-c3ccccc3)n3ccccc23)cc1
absorption maximum (in C1CCCCC1): 302 nm | absorption maximum (in CC#N): 305 nm | absorption maximum (in CO): 301 nm | absorption maximum (in ClC(Cl)Cl): 308 nm | absorption maximum (in ClCCl): 385 nm | absorption maximum (in O): 305 nm

Compound: COc1ccc(/C=C/C2=[O+][B-](F)(F)OC(/C=C/c3ccc(OC)cc3)=C2c2ccccc2)cc1
absorption maximum (in CC#N): 500 nm | absorption maximum (in CC(C)=O): 500 nm | absorption maximum (in CCOC(C)=O): 496 nm | absorption maximum (in CCOCC): 491 nm | absorption maximum (in ClC(Cl)(Cl)Cl): 493 nm | absorption maximum (in ClCCl): 505 nm

Compound: N#Cc1nc2c3ccc(-c4ccc(-n5c6ccccc6c6ccccc65)cc4)cc3c3cc(-c4ccc(-n5c6ccccc6c6ccccc65)cc4)ccc3c2nc1C#N
absorption maximum (in Cc1ccccc1): 418 nm

Compound: c1ccc2cc(-n3c4ccccc4c4ccccc43)ccc2c1
absorption maximum (in C1CCCCC1): 318 nm | absorption maximum (in C1CCOC1): 320 nm | absorption maximum (in CC#N): 321 nm | absorption maximum (in CCO): 320 nm | absorption maximum (in CCOC(C)=O): 318 nm | absorption maximum (in CCOCC): 319 nm | absorption maximum (in CO): 319 nm | absorption maximum (in Cc1ccccc1): 319 nm | absorption maximum (in ClC(Cl)Cl): 321 nm

Compound: COC(=O)c1c(-c2cc3ccccc3oc2=O)nn(-c2ccccc2)c1C(=O)OC
absorption maximum (in ClCCl): 322 nm

Continued, values first:

absorption maximum (in O): 432 nm
Compound: N#Cc1c(N2CCCCC2)cc(-c2ccc(O)cc2)c2c1-c1cccc3cccc-2c13

absorption maximum (in O): 493 nm
Compound: O=C([O-])c1cc(N2C(=O)C=CC2=O)ccc1-c1c2cc(F)c(=O)cc-2oc2cc([O-])c(F)cc12

absorption maximum (in ClC(Cl)Cl): 363 nm
Compound: Fc1ccc(C2=NC(c3ccccc3)C(N(c3ccccc3)c3ccccc3)S2)cc1 (stereo not drawn)

absorption maximum (in C1CCOC1): 384 nm
Compound: C1=C(c2ccccc2)C=C(c2ccccc2)/C1=C/c1ccc2c(c1)Cc1ccccc1-2

absorption maximum (in C1COCCO1): 443 nm | absorption maximum (in CC#N): 444 nm | absorption maximum (in CCCCOCCCC): 442 nm | absorption maximum (in CCOC(C)=O): 441 nm
Compound: COc1nc(Nc2ccc3c4cccc5cccc(c6cccc2c63)c54)nc(OC)n1

absorption maximum (in C1COCCO1): 396 nm | absorption maximum (in CC#N): 398 nm | absorption maximum (in CCCCOCCCC): 395 nm | absorption maximum (in CCOC(C)=O): 394 nm
Compound: Clc1nc(Cl)nc(Nc2ccc3cc4ccccc4cc3c2)n1

absorption maximum (in CS(C)=O): 403 nm | absorption maximum (in O): 394 nm
Compound: Cn1c2ccccc2c(=O)c2ccccc21

absorption maximum (in CCO): 381 nm
Compound: Cc1c(COC(=O)c2ccccc2Cl)n2c(OCC(=O)c3ccccc3Cl)c(C)c(=O)n2c1=O

absorption maximum (in ClCCl): 384 nm
Compound: CN(C)c1ccc(C#Cc2ncnc3ccccc23)cc1

absorption maximum (in ClCCl): 340 nm
Compound: CCCCn1c(-c2ccc(-c3nnc(-c4ccc5ccccc5c4)o3)cc2)nc(-c2ccccc2)c1-c1ccccc1

absorption maximum (in ClCCl): 457 nm
Compound: CCCCCc1ccc(C#Cc2cc(C#Cc3ccc(CCCCC)cc3)c3ccc4c(C(=O)c5ccccc5)cc(C#Cc5ccc(CCCCC)cc5)c5ccc2c3c54)cc1

absorption maximum (in CC#N): 356 nm | absorption maximum (in ClCCl): 358 nm
Compound: Cc1cc(O)c(C(=O)/C=C/c2ccccc2)c(=O)o1

absorption maximum (in ClCCl): 506 nm
Compound: CN(C)c1ccc(C#Cc2cc(C#Cc3ccc(N(C)C)cc3)c3ccc4c(C#Cc5ccc(C(F)(F)F)cc5)cc(C#Cc5ccc(N(C)C)cc5)c5ccc2c3c54)cc1

absorption maximum (in c1ccccc1): 410 nm
Compound: CCOC(=O)c1sc2nc3c(c(C#N)c2c1N)CCCCCC3

absorption maximum (in C1COCCO1): 326 nm | absorption maximum (in CC#N): 325 nm | absorption maximum (in CCCCCC): 343 nm | absorption maximum (in CCCCCCC): 344 nm | absorption maximum (in CCCO): 329 nm | absorption maximum (in CCOC(C)=O): 326 nm | absorption maximum (in CS(C)=O): 334 nm | absorption maximum (in ClC(Cl)Cl): 329 nm | absorption maximum (in ClCCl): 331 nm
Compound: COc1ccc(C#Cc2ccc(C#N)cc2)cc1OC

absorption maximum (in ClCCl): 330 nm
Compound: C(#Cc1ncc(-c2ccccc2)o1)c1cccnc1

absorption maximum (in ClCCl): 355 nm
Compound: c1ccc(-n2c3ccccc3c3cc(-c4cccc(-n5c6ccccc6c6c7sc8ccccc8c7ccc65)c4)ccc32)cc1

absorption maximum (in C1CCCCC1): 333 nm | absorption maximum (in C1COCCO1): 334 nm | absorption maximum (in CC#N): 332 nm | absorption maximum (in CC(C)(C)O): 336 nm | absorption maximum (in CC(C)O): 338 nm | absorption maximum (in CCCCCC): 331 nm | absorption maximum (in CCCCO): 337 nm | absorption maximum (in CCOC(C)=O): 334 nm | absorption maximum (in CN(C)C=O): 337 nm | absorption maximum (in CO): 336 nm | absorption maximum (in ClCCl): 336 nm | absorption maximum (in O): 338 nm
Compound: O=C1Nc2ccccc2/C1=C/C(=O)c1ccc(O)cc1

absorption maximum (in ClCCl): 442 nm
Compound: CCN(CC)c1ccc2cc(-c3nc4cc(C(=O)Nc5ccccc5)ccc4o3)c(=O)oc2c1

absorption maximum (in CCCCCC): 611 nm | absorption maximum (in CCCCCCCCO): 615 nm | absorption maximum (in CCOC(C)=O): 610 nm | absorption maximum (in CN(C)C=O): 615 nm | absorption maximum (in ClCCl): 616 nm
Compound: COc1ccc(C#Cc2c3ccccc3c3n2[B-](F)(F)[N+]2=C(C)C=C(C)C2=C3)cc1

absorption maximum (in C1CCOC1): 646 nm
Compound: CC(C)(C)NC1=CC2=c3cc(NC(C)(C)C)c4nc(C(F)(F)C(F)(F)C(F)(F)F)nc5c(NC(C)(C)C)cc(c3c54)C3=CC(NC(C)(C)C)=C4N=C(C(F)(F)C(F)(F)C(F)(F)F)N=C1C4C32 (stereo not drawn)

absorption maximum (in ClCCl): 350 nm | absorption maximum (in O): 338 nm
Compound: O=Cc1ccc(-c2ccc(O)c(-c3nc4ccccc4s3)c2)s1

absorption maximum (in ClCCl): 357 nm
Compound: Brc1ccc(-c2nc(-c3ccc(C#Cc4ccc(-n5c6ccccc6c6ccccc65)cc4)cc3)nc(-c3ccc(C#Cc4ccc(-n5c6ccccc6c6ccccc65)cc4)cc3)n2)cc1

absorption maximum (in ClCCl): 511 nm
Compound: COc1ccc(C2=C(c3ccc(OC)cc3)c3cccc4c5c(cc(c34)O2)=NC(C#N)C(C#N)N=5)cc1 (stereo not drawn)

absorption maximum (in CC#N): 377 nm
Compound: N#C/C(=C\c1ccc(C#N)cc1)c1nc(-c2ccc(Cl)cc2)c(-c2ccccc2)s1

absorption maximum (in ClCCl): 315 nm
Compound: COc1cc2c(cc1OC)C1=C[C@H](c3ccc(C)cc3)C3(C(C#N)=C(C#N)N1CC2)c1cc(Br)ccc1-c1ccc(Br)cc13

absorption maximum (in CC#N): 384 nm
Compound: CC(C)(C)Nc1oc(C=Cc2ccccc2)c(C(=O)OC(C)(C)C)c1C(=O)OC(C)(C)C
